In patent publication US12012410B2, “Substituted pyrazolo[1,5-a]pyrazines for spinal muscular atrophy” (REBORNA BIOSCIENCES, INC., priority 2018, dated 2024):

System: FL-SMN mRNA (SMN transcript containing exons 7 and 8)
Assay: Live-cell assay to measure changes in FL-SMN mRNA levels (qPCR) after exposure to the compounds
Assay type: cell-based, human
Settings: fibroblasts derived from patients SMA (GM03813); 24 hours incubation
Method: In this example, each test compound was administered to cultured cells, and changes in the expression levels of mRNA transcripts of SMN, i.e., FL-SMN containing exons 7 and 8 and Delta7 with exon 7 skipped, were examined using PCR.
Fibroblasts derived from patients SMA (GM03813) (Coriell Cell Repositories) were cultured with passages using DMEM (High Glucose) (Life Technologies) supplemented with 10% FBS (Life Technologies). Cells were seeded in tissue-culture-treated 96-well plates (Corning) at 1.5 or 0.5×10^4 cells/well in 100 μL of medium. The cells were incubated in 5% CO2 for 6 hours, and the medium was replaced with 100 μL of medium (with DMSO, 0.1% final concentration) containing each of the compounds given in the Examples. After additional incubation for 24 hours under the same conditions, the cells were washed once with D-PBS(—) (Wako) and 25 μL/well of the lysis solution (with gDNA Remove) contained in the SuperPrep (registered trademark) Cell Lysis & RT Kit for qPCR (Toyobo life science) was added according to the manufacturer's instructions so that the cells were lysed and the genomic DNA was degraded. Furthermore, 5 μL of the STOP solution (with RNase Inhibitor) contained in the kit was added to provide RNA-containing solutions. Six microliters of the RNA-containing solutions were each mixed with 14 μL of a reverse transcription solution containing transcriptase together with dNTP, random primers and an oligodT primer. Reverse transcription was performed at 37° C. (15 min), 50° C. (5 min), and 98° C. (5 min), to give total cDNAs. The total cDNAs were diluted 30-fold with Ultra-pure water (Invitrogen) to measure the expression levels of FL-SMN, delta7, and GAPDH. For quantitative PCR (qPCR), a PCR solution was prepared according to the instructions of the manufacturer of the THUNDERBIRD (registered trademark) Probe qPCR Mix (Toyobo life science). Five microliters of the diluted total cDNA solutions and oligo DNA standard solutions, each containing either 001-Standard FL-SMN (SEQ ID NO. 1) or 002-Standard delta7 (SEQ ID NO. 2), were each mixed with 10 μL of each of the PCR solutions containing a qPCR probe, primers, and PCR enzyme. […] The oligoDNA standard solutions were prepared as those containing either of 5×10^8, 5×10^7, 5×10^6, 5×10^5, 5×10^4, 5×10^3, 5×10^2, 5×10, 5, or 0 copies. For the oligo DNA standards, primers, and probes, oligonucleotides synthesized by Integrated DNA Technologies, Inc. (IDT) were used. […] FIGS. 3B and 3D show their detection mechanisms. The final concentrations of the primers and probes added were 0.4 μM and 0.15 μM, respectively. The qPCR was performed using the following conditions on a ViiA7 instrument (Applied Biosystems): first stage: 95° C. (1 min)→second stage: 95° C. (15 sec)→third stage: 60° C. (1 min)→40 repeated cycles of the second and third stages. The GAPDH mRNA was used as the internal control, and the commercially available 20×gene expression PCR assay (Life Technologies, 4326317E, Hs99999905_ml) and Standard GAPDH (SEQ ID NO. 7) (see FIG. 1) was used to determine the number of copies of this gene. The measurement values obtained for the samples to be measured were standardized against the respective value obtained for GAPDH.
Using the above-mentioned assays, the activities of the compounds of the Examples were evaluated. Specifically, the percentages of the FL-SMN and delta7 values obtained using DMSO without the compounds and standardized against GAPDH were set as 100% and those of the FL-SMN and delta7 values obtained at the time of administration of the compounds and standardized against GAPDH were calculated. […]

| Compound | Percentage of increase (FL-SMN mRNA standardized against GAPDH, DMSO control set as 100%) |
| --- | --- |
| COCCN1CCN(c2ccc3nc(-c4cc5c(C)nc(C)cn5n4)[nH]c(=O)c3c2)CC1 [Example 82, 2-(4,6-dimethylpyrazolo[1,5-a]pyrazin-2-yl)-6-[4-(2-methoxyethyl)piperazin-1-yl]quinazolin-4(3H)-one] | ** (equal to or higher than 120% but lower than 150%) |
| CCN1CCN(c2ccc3nc(-c4cc5c(C)nc(C)cn5n4)[nH]c(=O)c3c2)[C@@H](C)C1 [Example 130, (S)-2-(4,6-dimethylpyrazolo[1,5-a]pyrazin-2-yl)-6-(4-ethyl-2-methylpiperazin-1-yl)quinazolin-4(3H)-one] | *** (equal to or higher than 150% but lower than 180%) |
| Cc1cn2cc(-c3nc4ccc(N5CCN(C)CC5)cc4c(=O)[nH]3)nc2c(C)n1 [Example 50, 2-(6,8-dimethylimidazo[1,2-a]pyrazin-2-yl)-6-(4-methylpiperazin-1-yl)quinazolin-4(3H)-one] | ** (equal to or higher than 120% but lower than 150%) |
| Cc1cn2cc(-c3nc4cc(F)c(N5CCN(C)CC5)cc4c(=O)[nH]3)cc(F)c2n1 [Example 56, 7-fluoro-2-(8-fluoro-2-methylimidazo[1,2-a]pyridin-6-yl)-6-(4-methylpiperazin-1-yl)quinazolin-4(3H)-one] | ** (equal to or higher than 120% but lower than 150%) |
| Cc1cn2nc(-c3nc4ccc(N5CCN6CCCCC6C5)cc4c(=O)[nH]3)cc2c(C)n1 (stereo not shown) [Example 125, 2-(4,6-dimethylpyrazolo[1,5-a]pyrazin-2-yl)-6-(octahydro-2H-pyrido[1,2-a]pyrazin-2-yl)quinazolin-4(3H)-one (distomer)] | ** (equal to or higher than 120% but lower than 150%) |
| COc1ccc(F)c(-c2nc3ccc(C4CCN(C)CC4)cc3c(=O)[nH]2)c1 [Example 49, 2-(2-fluoro-5-methoxyphenyl)-6-(1-methylpiperidin-4-yl)quinazolin-4(3H)-one] | * (equal to or higher than 100% but lower than 120%) |
| Cc1cn2nc(-c3nc4ccc(N5CCN(C)C[C@H]5C)cc4c(=O)[nH]3)cc2c(C)n1 [Example 128, (R)-6-(2,4-simethylpiperazin-1-yl)-2-(4,6-dimethylpyrazolo[1,5-a]pyrazin-2-yl)quinazolin-4(3H)-one] | **** (equal to or higher than 180%) |
| Cc1nc2c(C)cc(-c3ccc4nc(C5CCN(C)CC5)[nH]c(=O)c4c3)cc2o1 [Example 71, 6-(2,4-dimethyl-1,3-benzoxazol-6-yl)-2-(1-methylpiperidin-4-yl)quinazolin-4(3H)-one] | * (equal to or higher than 100% but lower than 120%) |
| Cc1cn2cc(-c3nc4cc(F)c(N5CCN(C)CC5)cc4c(=O)[nH]3)cc(C)c2n1 [Example 57, 2-(2,8-dimethylimidazo[1,2-a]pyridin-6-yl)-7-fluoro-6-(4-methylpiperazin-1 - yl)quinazolin-4(3H)-one] | ** (equal to or higher than 120% but lower than 150%) |
| Cc1cn2nc(-c3nc4ccc(N5CCN(C(C)C)CC5)cc4c(=O)[nH]3)cc2c(C)n1 [Example 119, 2-(4,6-dimethylpyrazolo[1,5-a]pyrazin-2-yl)-6-(4-isopropylpiperazin-1-yl)quinazolin-4(3H)-one bistrifluoroacetate] | **** (equal to or higher than 180%) |
| COc1cc(-c2ccc3nc(C4CCN(C)CC4)[nH]c(=O)c3c2)cn2cc(C)nc12 [Example 22, 6-(8-methoxy-2-methylimidazo[1,2-a]pyridine-6-yl)-2-(1-methylpiperidine-4-yl) kinazoline-4 (3H)-one] | **** (equal to or higher than 180%) |
| Cc1cn2cc(-c3ccc4nc(C5CCN(C)CC5)[nH]c(=O)c4c3)cc(C)c2n1 [Example 23, 6-(2,8-dimethylimidazo[1,2-a]pyridine-6-yl)-2-(1-methylpiperidin-4-yl) kinazoline-4 (3H)—one] | *** (equal to or higher than 150% but lower than 180%) |
| Cc1nc2c(F)cc(-c3ccc4nc(C5CCN(C6CC6)CC5)[nH]c(=O)c4n3)cc2o1 [Example 106, 2-(1-cyclopropylpiperidin-4-yl)-6-(4-fluoro-2-methyl-1,3-benzoxazol-6-yl)pyrido[3,2-d]pyrimidin-4(3H)-one] | ** (equal to or higher than 120% but lower than 150%) |
| Cc1cn2cc(-c3nc4ccc(N5CCN(C)CC5)cc4c(=O)[nH]3)ccc2n1 [Example 58, 2-(2-methylimidazo[1,2-a]pyridin-6-yl)-6-(4-methylpiperazin-1-yl)quinazolin-4(3H)-one] | ** (equal to or higher than 120% but lower than 150%) |
| Cc1nc2cc(-c3ccc4nc(C5CCN(C)CC5)[nH]c(=O)c4c3)ccc2o1 [Example 72, 6-(2-methyl-1,3-benzoxazol-5-yl)-2-(1-methylpiperidin-4-yl)quinazolin-4(3H)-one] | * (equal to or higher than 100% but lower than 120%) |
| Cc1cn2cc(-c3ccc4nc(C5(F)CCN(C(C)C)CC5)[nH]c(=O)c4c3)cc(F)c2n1 [Example 91, 2-(4-fluoro-1-isopropylpiperidin-4-yl)-6-(8-fluoro-2-methylimidazo[1,2-a]pyridin-6-yl)quinazolin-4(3H)-one] | **** (equal to or higher than 180%) |
| Cc1cn2nc(-c3nc4ccc(N5CCNC6(CC6)C5)cc4c(=O)[nH]3)cc2c(C)n1 [Example 123, 2-(4,6-dimethylpyrazolo[1,5-a]pyrazin-2-yl)-6-(4,7-diazaspiro[2.5Joctan-7-yl)quinazolin-4(3H)-one bistrifluoroacetate] | **** (equal to or higher than 180%) |
| CCN1CCC(F)(c2nc3cnc(-c4cc(F)c5nc(C)cn5c4)cc3c(=O)[nH]2)CC1 [Example 109, 2-(1-ethyl-4-fluoropiperidin-4-yl)-6-(8-fluoro-2-methylimidazo[1,2-a]pyridin-6-yl)pyrido[3,4-d]pyrimidin-4(3H)-one] | *** (equal to or higher than 150% but lower than 180%) |
| Cc1cn2cc(-c3ccc4nc(C5CCN(C)CC5)[nH]c(=O)c4c3)ccc2n1 [Example 9, 6-(2-Methylimidazo[1,2-α]pyridin-6-yl)-2-(1-methylpiperidin-4-yl)quinazolin-4(3H)-one] | **** (equal to or higher than 180%) |
| COCCN1CCC(c2nc3cnc(-c4cc(F)c5nc(C)oc5c4)cc3c(=O)[nH]2)CC1 [Example 113, 6-(4-fluoro-2-methyl-1,3-benzoxazol-6-yl)-2-[1-(2-methoxyethyl)piperidin-4-yl]pyrido[3,4-d]pyrimidin-4(3H)-one] | **** (equal to or higher than 180%) |
| Cc1cn2nc(-c3nc4ccc(C5CCN(C)CC5)cc4c(=O)[nH]3)cc2c(C)n1 [Example 2, 2-(4,6-Dimethylpyrazolo[1,5-a]pyrazin-2-yl)-6-(1-methylpiperidin-4-yl)quinazolin-4(3H)-one] | **** (equal to or higher than 180%) |
| Cc1cn2cc(-c3nc4ccc(N5CCN(C)CC5)cc4c(=O)[nH]3)cc(F)c2n1 [Example 53, 2-(8-fluoro-2-methylimidazo[1,2-a]pyridin-6-yl)-6-(4-methylpiperazin-1-yl)quinazolin-4(3H)-one] | ** (equal to or higher than 120% but lower than 150%) |
